Results published in patent US20220183287A1, “METHODS FOR KILLING PESTS” (The United States of America, as represented by the …, priority 2020, published 2022).
Marks after values point to notes of the source that are not given here.

What was measured:
[1] = test system: H. glycines second-stage juveniles; assay: Microwell assay: previously hatched J2 immersed in compounds, activity and viability; conditions: for viability reduction compared with the Tween control: following the water rinse (Day 3); for inactive J2: Day 1 and Day 2; for reduction in % viable J2 compared with the Tween control: Day 3 following water rinse
Method: The isolate of H. glycines race 3, originally isolated in Maryland, was maintained on soybean (Glycine max cv. ‘Essex’). As previously described (Wen, Y., et al. Plant Disease, 103: 2191-2198 (2019)), the roots were gently rubbed in water to dislodge cysts and mature females. The egg suspensions were then poured through nested sieves (#20 over /#60; pore sizes 850 μm and 250 μm diam., respectively) into a 454 g/liter sucrose solution. After 15 min, the cysts and females and cysts that floated to the top were collected, rinsed in water, and crushed with a rubber stopper on a #60 sieve (250-μm diam. pore size) that was partially submerged in distilled water. The egg suspension was washed through nested #230 over #500 sieves (pore sizes 63 μm and 25-μm diam., respectively). The eggs were collected in distilled water, and J2 hatched as described above.
Compounds for the studies were purchased from three different companies: methyl benzoate, CAS Number 93-58-3, ≥99% purity; Tween 20, CAS Number: 9005-64-5; Tween 80, CAS Number: 9005-65-6; ethyl benzoate, CAS Number: 93-89-0, natural, ≥99% purity, FCC, FG; vinyl benzoate, CAS Number: 769-78-8, ≥99% purity; n-propyl benzoate, CAS Number: 2315-68-6, 99% purity; n-butyl benzoate, CAS Number: 136-60-7, 99% purity; benzyl benzoate, CAS Number: 120-51-4, natural, ≥99% purity, FCC, FG; methyl 2-methylbenzoate, CAS Number: 89-71-4, 99% purity; methyl 2-chlorobenzoate, CAS Number: 610-96-8, ≥98% purity; methyl 2-methoxybenzoate, CAS Number: 606-45-1, 99% purity and methyl 2-nitrobenzoate, CAS Number: 606-27-9, 98% purity were purchased from Sigma-Aldrich (St. Louis, Mo.). Compounds, iso-butyl benzoate, CAS Number 120-50-3, >98% purity; n-pentyl benzoate, CAS Number: 2049-96-9, ≥98% purity; and n-hexyl benzoate, CAS Number: 6789-88-4, ≥98% purity were purchased from Alfa Aesar (Tewksbury, Mass.). The compounds methyl 3-methoxybenzoate (methyl m-anisate), CAS Number: 5368-81-0; 97% and methyl 3-methylbenzoate (methyl m-toluate), CAS Number: 99-36-5, 97% purity were purchased from TCI America (Portland, Oreg.). All chemicals were used without further purification. Deionized water (DI) containing 1% emulsifier (v/v), Tween 20 and Tween 80, at 1:1 ratio was used to make different VOCs (volatile organic compounds) water solutions and also used as blank control.
For tests with individual compounds, the concentration of each compound was 0.1% before placement into wells; the final concentration in the wells was 0.095% after addition to eggs or J2 suspended in water. These are reported as 0.1% herein. An exception was Trial 2, M. incognita J2 activity and viability (Table 2): the final concentration was 0.1% after placement in wells. Low concentrations were selected for assays of combined compounds to determine if the combinations would increase nematotoxicity.
Laboratory assays were conducted in 96-well polystyrene plates following general procedures described in Wen et al. (2019). Each well received approximately 35 J2 (for previously hatched J2 assays) or 35 eggs that each contained either a first-stage juvenile (J1) or a J2. The plates were covered with plastic adhesive sealing film (Excel Scientific, Inc., Victorville Calif.) and then with the plate lids. Parafilm (Bemis, Neenah, Wis.) was used to seal the plates. The nematodes were then incubated at 26° C. […] Following the counts on Day 2, the treatments were removed and the J2 rinsed twice with SDW and incubated in the second rinse. […] Two trials were conducted for each assay.
(§1) Statistical analyses: The data were analyzed as either a general linear model using JMP or a generalized linear model for the best distribution to fit the residual using Proc Glimmix (Sas Institute). The assumptions of the model were checked. If not met, then appropriate statistical techniques were used so that data could met the assumptions of the models. In Sas, mean comparisons were done with Sidak adjusted p-values to hold the experiment-wise error at 0.05.

[2] = test system: cucumber (Cucumis sativus) plants; assay: Greenhouse trial: cucumber plant vigor in treated soil; conditions: for Root weight Trials 1 & 2: 27-28 ml per 300 grams soil; for Shoot fresh weight Trial 1 / Shoot height Trial 1: 27 ml per 300 grams soil; for Shoot fresh weight Trial 2 / Shoot height Trial 2: 28 ml per 300 grams soil
Method: Greenhouse trials: Selected compounds and combinations were tested for effects on plant growth and on numbers of galls produced by M. incognita infecting cucumber (Cucumis sativus) plants in pots. Cucumber “Sweet Slice” seeds were planted in ProMix in 6-pack cell trays. Treatments were mixed into loamy sand at 27 ml (Trial 1) and 28 ml (Trial 2) per 300 grams soil. Meloidogyne incognita eggs were mixed into soil for a final inoculum of 5,000 per pot. Each pot received 300 grams soil per treatment, with 4 replicates per treatment in each of two trials. Pots were covered with black plastic and periodically watered to keep the soil moist. Two weeks later, one 14-day old cucumber seedling was transplanted into each pot. Two weeks after transplant, the plants were harvested. Root and shoot measurements were recorded and root galls were counted.
as §1, with “0.05. As indicated in the footnote to Table 5, an analysis from greenhouse trials was conducted with JMP using a Wilcoxon test with each pair nonparametric multiple comparisons (P≤0.05).” for “0.05.”
Table 5 legend: a) treatments were added at a rate of 27 ml (Trial 1) and 28 ml (Trial 2) per 300 grams soil. Four replicate pots, each containing 300 grams soil, were used per treatment in each trial. Meloidogyne incognita was mixed into soil for a final inoculum of 5,000 eggs per pot. Two weeks after soil treatment, one 14-day old cucumber seedling was transplanted into each pot. […] Untransformed data are presented to show actual numbers on roots; e) compounds differ from each other in number of carbons of aliphatic ester moiety. The number of carbons is indicated in parentheses.

M. incognita = assay: Greenhouse trial: root galls on cucumber in treated soil; assay type: in vivo, Meloidogyne incognita; conditions: for reduction of galls per gram of root compared with the Tween control: 0.1%, Trials 1 & 2
Text: Two weeks after transplant, the plants were harvested.
The assumptions of the model were checked.
The number of carbons is indicated in parentheses.

[3] = 0.1%, previously hatched J2 in aqueous solution
[4] = Heterodera glycines, 72 h, read-out: % Viable Day 3 rinsed

Structure (SMILES) | % Active Day 1 [1, 3] | % Active Day 2 [1, 3] | viability at 0.1 % [1, 4] | Root weight Trials 1 & 2 ([2]; 0.05%) | Shoot fresh weight Trial 1 ([2]; 0.05%) | Shoot height Trial 1 ([2]; 0.05%) | Shoot fresh weight Trial 2 ([2]; 0.05%) | Shoot height Trial 2 ([2]; 0.05%) | Root weight Trials 1 & 2 ([2]; 0.1%) | Shoot fresh weight Trial 1 ([2]; 0.1%) | Shoot height Trial 1 ([2]; 0.1%) | Shoot fresh weight Trial 2 ([2]; 0.1%) | Shoot height Trial 2 ([2]; 0.1%) | Galls per gram root Trials 1 & 2 (M. incognita; 0.05%, 5,000 eggs per pot) | Galls per gram root Trials 1 & 2 (M. incognita; 0.1%, 5,000 eggs per pot) | reduction of galls per gram of root compared with the Tween control (M. incognita) | inactive J2 ([1]; 0.1%) | reduction in % viable J2 compared with the Tween control ([1]; 0.1%) | also measured
CCOC(=O)c1ccccc1 [EB, Ethyl benzoate] | 2.7 ^e % | 1.8 ^g % | 4.4% | 3.2 ^ab g | 2.8 ^a g | 7.1 ^ab cm | 4.7 ^a g | 7.5 ^a cm | 3.1 ^ab g | 3.0 ^a g | 6.4 ^b cm | 4.0 ^ab g | 8.1 ^a cm | 22.6 ^bcd | 34.2 ^abc | 53% |  |  | % Active Day 1 ([1]; 0.025% final concentration): 73.9 ^a %; viability at 0.025 % [1, 4]: 52.8%
COC(=O)c1ccccc1 [MB, Methyl benzoate] | 0 ^e % | 0 ^h % | 0% | 3.0 ^ab g | 3.2 ^a g | 7.7 ^ab cm | 3.9 ^ab g | 8.0 ^a cm | 2.9 ^ab g | 3.0 ^a g | 7.2 ^ab cm | 4.0 ^ab g | 8.3 ^a cm | 16.6 ^bcde | 7.4 ^defg |  | 100% | 100% | % Active Day 1 ([1]; 0.0095% final concentration): 49.7 ^bc %; % Active Day 2 ([1]; 0.0095% final concentration): 27.9 ^bc %; viability reduction compared with the Tween control ([1]; 0.0095%): 32%; viability at 0.0095 % [1, 4]: 43.8%
COC(=O)c1cccc(C)c1 [M3MB, Methyl 3-methylbenzoate] | 10.1 ^d % | 7.6 ^g % | 8.5% | 3.3 ^a g | 3.3 ^a g | 6.8 ^ab cm | 4.3 ^ab g | 7.9 ^a cm |  | 3.2 ^a g | 6.9 ^ab cm | 3.6 ^ab g | 7.2 ^a cm | 11.2 ^bcdef | 6.8 ^defg |  |  |  | % Active Day 1 ([1]; 0.015% final concentration): 71.9 ^a %; viability at 0.015 % [1, 4]: 58.7%
C=COC(=O)c1ccccc1 [VB, Vinyl benzoate] | 0 ^e % | 0 ^h % | 0% | 3.1 ^ab g | 3.2 ^a g | 6.7 ^ab cm | 4.3 ^ab g | 8.3 ^a cm |  | 3.0 ^a g | 7.2 ^ab cm | 3.1 ^b g | 6.8 ^a cm | 1.8 ^gh | 0.1 ^h | ~100% | 100% | 100% | % Active Day 1 ([1]; 0.008% final concentration): 42.8 ^bc %; % Active Day 2 ([1]; 0.008% final concentration): 34.7 ^b %; viability reduction compared with the Tween control ([1]; 0.008%): 30%; viability at 0.008 % [1, 4]: 45%
